The results in this text go back to patent publication US20250186410A1, “DUAL INHIBITORS OF TRYPTOPHAN DIOXYGENASES (IDO1 AND TDO) AND THEIR USE IN THERAPY” (ANTIDO THERAPEUTICS INTERNATIONAL SÀRL, priority 2022, published 2025).

The target of data set [1] is Recombinant human IDO1 (rhIDO1) (Homo sapiens (Human), UniProt P14902). As to the kind of experiment: Enzymatic assay for IDO1 activity. The class given is biochemical. The following applies: read-out: Isolated IDO1 Enayme Assay IC50. How it is done:
Recombinant human IDO1 (rhIDO1) was expressed and purified from cultures of EC538 strain of E. coli transformed with pREP4 and pQE9-IDO plasmid. Reaction mixes were set up in 384-well microplates containing 50 mM phosphate buffer, 10 mM ascorbic, 10 μM methylene blue, 100 μg/mL catalase, 80 μM TRP, 0.01% Tween 20 (v/v) mixed with rhIDO1 (15 μL) at a final concentration of 9 nM in a total volume of 30 μL assay medium. The plates were incubated at 37° C. for 30 min, and the enzymatic reaction was terminated by adding piperidine (200 mM) and heated at 65° C. for 20 min. Fluorescence intensity was read at λex 400 nm and λem 500 nm. Test compounds were dissolved in 100% DMSO and pre-diluted in assay medium prior to adding rhIDO1. IDO1 inhibition (%) was calculated as
All experiments were carried out in triplicates, and statistical Analyses were conducted in Prism v5 (Graphpad Software, Inc., La Jolla, CA, USA).

Data set [2] has as its system lung cancer cell line BC (cisplatin-resistant). As to the kind of experiment: Growth inhibition and cytotoxicity assay (trypan blue), BC cells. The class given is cell-based. The following applies: Homo sapiens. How it is done: (§1) In this study 3 different human-derived lung cancer cell lines were exposed to vehicle control (parental cells B, S and A) or long-term incubation with cisplatin (BC, SC and ALC cells). Long-term incubation with cisplatin induced cisplatin-resistance in the BC, SC and ALC cell lines.
(§2) Cells were seeded in 24-well dishes and treated with various concentrations of inhibitors (i.e. Epacadostat or AT-0174). Briefly, the culture media as well as the trypsinized cells were collected and this mixture was centrifuged at 400×g for 5 min. The supernatant was discarded, re-suspended in 1 mL of Hank's buffer, and assayed for live cells and death cells using trypan blue exclusion method.
(§3) Data from in vitro experiments were performed from three separate biological replicates which were isolated and analyzed in technical triplicates. Separate measurements using the two-tailed t-test and the results were expressed as mean±standard deviation.

The subject of data set [3] is lung cancer cell line ALC (cisplatin-resistant). As to the kind of experiment: Growth inhibition and cytotoxicity assay (trypan blue), ALC cells. The class given is cell-based. The conditions noted are these: Homo sapiens. How it is done:
as §1, §2, §3

Data set [4] has as its system lung cancer cell line B (cisplatin-sensitive). The data set can be described thus: Growth inhibition and cytotoxicity assay (trypan blue), B cells. The class given is cell-based. The following applies: Homo sapiens. How it is done:
as §1, §2, §3

The nature of data set [5]: MTT cell viability in the cellular IDO1/TDO experiments. The class given is cell-based. The conditions noted are these: mouse, read-out: Cytotoxicity IC50. Here is the method: The viability of the cells in each well in the same experiment was determined using the 3-(4,5-dimethylthiazolyl-2-yl)-2,5-diphenyltetrazolium bromide (MTT) colourimetric assay. After the removal of the supernatant for determination of IDO1 inhibition, the cells were incubated with MTT (500 μg/mL) until crystal formation was observed. Plates were centrifuged for 15 min at 2500 g, and then all the supernatant in then wells was discarded. DMSO (100 μL/well) was added to dissolve the crystals and then the absorbance in each well was measured at 570 nm. Cell viability in each well was expressed as a percentage of untreated controls. Triplicate cultures were used for all experiments unless stated otherwise.
The viability of the cells in each well in the same experiment was determined using the 3-(4,5-dimethylthiazolyl-2-yl)-2,5-diphenyltetrazolium bromide (MTT) colourimetric assay.

In data set [6] the test system is cisplatin-resistant LLC tumors. The data set can be described thus: Survival of mice with cisplatin-resistant LLC tumors. The class given is in vivo, mouse. The conditions noted are these: for First Death / Maximal Survival / Median Survival Time: LLC-CR, C57B6/J mice, epacadostat 200 mg/kg, AT-0174 170 mg/kg P.O., anti-PD-1 10 mg/kg i.p. every 3 days. Here is the method:
To investigate the synergy of immune response on tumors between the dual IDO1/TDO inhibitor AT-0174 and an immune checkpoint inhibitor, the compound was tested in mice with cisplatin-resistant lung cancer tumors with and without with anti-PD1 antibody co-treatment.
LLC-CR (1×10^6) cells were subcutaneously injected into the flank of C57B6/J mice (6 mice per group, age 8 weeks) and allowed to grow for 3 days (average tumor size=50 mm^3) before being treated with IDO1 inhibitor epacadostat at 200 mg/kg daily (a supra-maximal dose) or with AT-0174 at 170 mg/kg. Both compounds were administered via oral gavage (P.O.) in 95% water+5% methylcellulose (0.5%). Anti-mouse PD-1 MAb clone RMPi-14 was used as checkpoint inhibitor and administered via intraperitoneal injection (i.p.) at a dose of 10 mg/kg every 3 days.

The test system of data set [7] is lung cancer cell line SC (cisplatin-resistant). The data set can be described thus: Growth inhibition and cytotoxicity assay (trypan blue), SC cells. The class given is cell-based. The following applies: Homo sapiens. Here is the method: as §1, §2, §3
The test system of data set [8] is lung cancer cell line A (cisplatin-sensitive). As to the kind of experiment: Growth inhibition and cytotoxicity assay (trypan blue), A cells. The class given is cell-based. The following applies: Homo sapiens. How it is done: as §1, §2, §3
Data set [9] concerns lung cancer cell line S (cisplatin-sensitive). As to the kind of experiment: Growth inhibition and cytotoxicity assay (trypan blue), S cells. The class given is cell-based. The following applies: Homo sapiens. Here is the method:
as §1, §2, §3

Recombinant human IDO1 (rhIDO1), sequence (P14902 whole entry): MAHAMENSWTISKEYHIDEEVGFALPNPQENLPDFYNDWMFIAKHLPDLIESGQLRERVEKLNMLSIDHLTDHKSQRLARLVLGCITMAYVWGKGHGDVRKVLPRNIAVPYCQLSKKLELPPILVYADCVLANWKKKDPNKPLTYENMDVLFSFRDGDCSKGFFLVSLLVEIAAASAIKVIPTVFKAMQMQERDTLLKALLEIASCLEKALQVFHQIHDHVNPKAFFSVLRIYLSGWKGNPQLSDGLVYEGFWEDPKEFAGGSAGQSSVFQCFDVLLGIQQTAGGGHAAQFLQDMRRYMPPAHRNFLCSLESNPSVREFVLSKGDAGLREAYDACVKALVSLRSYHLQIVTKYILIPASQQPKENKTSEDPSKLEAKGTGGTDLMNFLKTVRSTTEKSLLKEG

One may read the IC50 as the midpoint of a concentration-inhibition curve. In general, viability refers to the share of living cells, or the viability signal relative to a control. Higher therefore signals better survival. Turning to `Nc1noc2nc(Cl)c(F)cc12` [Compound 66, 6-Chloro-5-fluoroisoxazolo[5,4-b]pyridin-3-amine], in [1], the IC50 was below 1 µM. Further, the viability at 12.5 µM in data set [2] (12.5 μM AT-0174) was 78.8 ± 6.4%; in [3] (12.5 μM AT-0174) it was 76.7 ± 4.2%; in data set [4] (12.5 μM AT-0174) it was 84.8 ± 11.3%; in [7] (12.5 μM AT-0174), 65.7 ± 6.4%; in data set [8] (12.5 μM AT-0174) it was 92.8 ± 8.5%; in [9] (12.5 μM AT-0174) it was 78 ± 7.1%. For the same compound, the viability at 25 µM was determined as 65.3 ± 0.7% in data set [2] (25.0 μM AT-0174); 62.5 ± 4.9% in data set [3] (25.0 μM AT-0174); 97.9 ± 2.1% in data set [4] (25.0 μM AT-0174); 68.1 ± 2.1% in data set [7] (25.0 μM AT-0174); 75.1 ± 14.1% in data set [8] (25.0 μM AT-0174); 96.8 ± 19.1% in data set [9] (25.0 μM AT-0174). For the same compound, the viability at 50 µM in data set [2] (50.0 μM AT-0174) is 59.9 ± 4.9%; in data set [3] (50.0 μM AT-0174) it was 67.3 ± 13.4%; in data set [4] (50.0 μM AT-0174), 92.2 ± 15.6%; in data set [7] (50.0 μM AT-0174), 70 ± 2.1%; in data set [8] (50.0 μM AT-0174) it was 74.4 ± 7.1%; in data set [9] (50.0 μM AT-0174) it was 70.2 ± 14%. Besides, the IC50 at 24 h in [5] was above 100 µM. Also, the “effect on survival” value in [6] (LLC-CR mice, given alone) is recorded as “increased survival to a greater extent than the selective agent”. Also, the “First Death” value in data set [6] was found to be 36 days. For the same compound, the “Maximal Survival” value in data set [6] is on record as 43 days. For the same compound, in data set [6], the “Median Survival Time” value is listed as 36 days.
On to `NS(=O)(=O)NCCNc1nonc1C(=NO)Nc1ccc(F)c(Br)c1` [Epacadostat, epacadostat, reference compound], for which, in [6], the “First Death” value came to 24 days, the “Maximal Survival” value is on record as 35 days and the “Median Survival Time” value turned out to be 25 days.
